B1: full-length human GlyRα3 (receptor, UniProt O75311 34-464, looked up)
chain: ARSRSAPMSPSDFLDKLMGRTSGYDARIRPNFKGPPVNVTCNIFINSFGSIAETTMDYRVNIFLRQKWNDPRLAYSEYPDDSLDLDPSMLDSIWKPDLFFANEKGANFHEVTTDNKLLRIFKNGNVLYSIRLTLTLSCPMDLKNFPMDVQTCIMQLESFGYTMNDLIFEWQDEAPVQVAEGLTLPQFLLKEEKDLRYCTKHYNTGKFTCIEVRFHLERQMGYYLIQMYIPSLLIVILSWVSFWINMDAAPARVALGITTVLTMTTQSSGSRASLPKVSYVKAIDIWMAVCLLFVFSALLEYAAVNFVSRQHKELLRFRRKRKNKTEAFALEKFYRFSDMDDEVRESRFSFTAYGMGPCLQAKDGMTPKGPNHPVQVMPKSPDEMRKVFIDRAKKIDTISRACFPLAFLIFNIFYWVIYKILRHEDIHQQQD
notes: Glycine receptor subunit alpha-3, human, UniProt O75311, full-length codon-optimized GLRA3 gene; last residue printed as Asp431 on mature numbering; ICD Lys312-Arg385 not modelled in the maps; Homopentamer reconstituted in peptidisc (NSP peptide scaffold); the models are numbered without it; also called hGlyRα3; glycine receptor α3; source: Sf9 cells (baculovirus, pFastBac1), purified (DDM …)

Legend:
GlyRα3 = target: T1, GlyRα3 (Homo sapiens, UniProt O75311); assay: cryo-EM structures with glycine density; EC50 by two-electrode voltage clamp in Xenopus oocytes; assay type: cell-based
T1 construct: gene GLRA3; full-length, C-terminal thrombin site and 8x histidine tag, homopentamer in peptidisc (cryo-EM); full-length in Xenopus oocytes (TEVC)
T1 sequence (O75311 34-464): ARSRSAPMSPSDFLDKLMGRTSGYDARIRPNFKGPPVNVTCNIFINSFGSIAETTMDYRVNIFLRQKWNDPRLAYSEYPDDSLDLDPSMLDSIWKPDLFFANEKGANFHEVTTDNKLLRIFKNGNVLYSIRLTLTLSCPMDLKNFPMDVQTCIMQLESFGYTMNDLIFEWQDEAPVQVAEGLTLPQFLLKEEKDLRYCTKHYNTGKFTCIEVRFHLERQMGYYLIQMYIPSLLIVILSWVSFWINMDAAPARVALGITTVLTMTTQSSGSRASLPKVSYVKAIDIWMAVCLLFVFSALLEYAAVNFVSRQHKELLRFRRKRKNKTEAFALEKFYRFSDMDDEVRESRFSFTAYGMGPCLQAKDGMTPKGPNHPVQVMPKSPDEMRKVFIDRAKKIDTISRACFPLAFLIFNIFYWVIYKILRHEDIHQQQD

[1] = target: the molecule itself; assay: cryo-EM structure; GlyRα3 in peptidisc, 0.3 to 1 mg/ml, 20 mM Hepes, 150 mM NaCl, pH 8.0 or pH 6.4; 0.1 or 1 mM glycine, without or with 1 or 100 μM ZnCl2; final maps refined with C5 symmetry

Molecule | EC50 (GlyRα3) | stoichiometry N [1]
NCC(=O)O [glycine] | 213 ± 13 µM | 
B1 |  | 5
